# Measurements: patent US10881729B2, “Vaccine adjuvant compositions” (CHILDREN'S MEDICAL CENTER CORPORATION, priority 2014, dated 2021)
# Tests used:
# [1] = cited from earlier work
# newborn MoDCs = assay: TNF-α ELISA of supernatants of stimulated newborn MoDCs; type: cell-based, human; conditions: for TNF production in response to single TLR agonist, newborn compared to adult MoDCs: newborn vs adult MoDCs, FIG. 2
# Method: Isolated monocytes were seeded in 75 cm^2 tissue culture dishes for 5 days at 37° C. in a humidified incubator at 5% CO2 with 10^6 cells/ml medium. Medium consisted of RPMI 1640 medium with L-glutamine (GIBCO—LIFE TECHNOLOGIES, Carlsbad, Calif., USA) supplemented with 1% Penicillin-Streptomycin-Glutamine (PSG) (Invitrogen—Life Technologies, Carlsbad, Calif., USA) and 10% AP. This was supplemented with recombinant human (rh) IL-4 and rhGM-CSF (50 ng/ml and 100 ng/ml, respectively; R&D Systems, Minneapolis, Minn., USA). Additional fresh media and cytokines were provided on day 3 of incubation.
# After 5 days, immature MoDCs were harvested by gently pipetting only the loosely adherent fraction and re-plated (10^5 cells/well) in 96-well U-bottom plates in the presence or absence of TLRAs, and/or CLRAs, and/or sterile DPBS. This MoDC array was then incubated for 18-24 hours at 37° C. in a humidified incubator at 5% CO2. After this stimulation MoDCs were harvested and processed for further functional assays. (FIG. 2).
# Supernatants from MoDCs (GCI-DCs) stimulated for 18 hours in a humidified incubator (37° C., 5% CO2) with TLRAs, and/or CLRAs were analyzed for TNF-α production. For this, a human TNF enzyme-linked immunosorbent assay (ELISA) kit was used, and assay was performed according to manufacturer's instruction. (BD Biosciences, BD Biosciences, San Jose, Calif., USA). Results were read on a Versamax microplate reader with SoftMax Pro Version 5 (both from Molecular Devices, Sunnyville, Calif., USA).
# The inventors further evaluated the ability of these two combinations of agonists to activate newborn MoDCs by establishing concentration-response curves and by investigating whether the enhancement in TNF secretion can be observed with similar agonists that activate the same receptors. In addition, the concentration-response curves were used to mathematically assess whether the observed enhancement by combining agonists is equal to the sum of the effects observed with individual agonists (i.e., was additive) or if these agonists activate the newborn cells synergistically. A modification of the Loewe definition of additivity was applied to determine whether the agonists act synergistically (D<1), additively (D=1) or antagonistically (D>1), where D=[Ac]/[Ae]+[Bc]/[Be], and [Ac] and [Bc] are the concentrations of compound A and B used in the dual (combined) stimulation and [Ae] and [Be] are the concentrations of A and B that induce an equal amount of TNF secretion alone.
# newborn and adult MoDCs = assay: Gene expression by quantitative RT-PCR array, MPLA-stimulated newborn versus adult MoDCs; type: cell-based, human
# Method: Total ribonucleic acid (RNA) of newborn and adult MoDCs (GCI-DCs and TC-DCs) was isolated with the miRNeasy kit, according to manufacturer's instructions (QIAGEN®, Inc., Valencia, Calif., USA) Total RNA from both un-stimulated cells and cells stimulated with 1 μg/ml MPLA was isolated. RNA quality was analyzed for quality and quantity by using a NanoDrop 1000 spectrophotometer (Thermo Scientific, Wilmington, Del., USA). Complementary deoxyribonucleic acid (cDNA) was prepared from total RNA from each sample with a miScript II RT Kit, according to manufacturer's instructions (QIAGEN®, Inc., Valencia, Calif., USA). cDNA was quantified on a PAHS-052Z plate (QIAGEN®, Inc., Valencia, Calif., USA). Quantitative real time-polymerase chain reaction (RT-PCR) was run on a 7300 real time PCR system (APPLIED BIOSYSTEMS®—Life Technologies, Life Technologies, Carlsbad, Calif., USA).
molecule,measurement,setting,value
"CCOCc1nc2c(N)nc3ccccc3c2[nH]1 [CL097, 2-(ethoxymethyl)-1 H-imidazo[4,5-c]quinolin-4-amine]",water solubility,[1],highly water-soluble
Pam3Cys,"TNF production in response to single TLR agonist, newborn compared to adult MoDCs",newborn MoDCs,less TNF
Polyinosinic:polycytidylic acid [Poly I:C],"TNF production in response to single TLR agonist, newborn compared to adult MoDCs",newborn MoDCs,less TNF
glycopyranosyl lipid A [GLA],synergy in TNF production with the partner agonist named in the sentence,"newborn MoDCs; newborn MoDCs, VTX-294 for R848 (with TDB), GLA for MPLA (with Zymosan), BGP for Zymosan, Zymosan with MPLA or GLA",also present
monophosphoryl lipid A [MPLA],"TNF production in response to single TLR agonist, newborn compared to adult MoDCs",newborn MoDCs,less TNF
same,"TNF gene expression, adults compared to newborns","newborn and adult MoDCs; MPLA 1 μg/ml, 24 hours",2 fold
same,"IL-6 and IL-10, newborn MoDCs compared to adult MoDCs","newborn and adult MoDCs; MPLA treatment, FIG. 1",more
same,"expression levels of IRF7 and IRAK1, adult MoDCs compared to newborn","newborn and adult MoDCs; MPLA treatment, FIG. 1",higher
same,"IL6 and CXCL-8 (IL8) gene expression, newborn MoDCs compared to adult MoDCs",newborn and adult MoDCs; after treatment with MPLA,greater
same,"expression of IRF7, IRAK1 and NFKB1, adult MoDCs compared to newborn",newborn and adult MoDCs; after treatment with MPLA,greater
